Values of other authors, collected in patent publication US20230349886A1, “SYSTEMS AND METHODS FOR PREDICTING CARDIOTOXICITY OF MOLECULAR PARAMETERS OF A COMPOUND BASED ON MACHINE LEARNING ALGORITHMS” (UTI Limited Partnership, priority 2015, published 2023).
Like-named read-outs stand apart in the source and are kept apart here. Peptide text beside a SMILES is read from it.

How the values were obtained:
Nav1.5 [1] = biological target: T1, Nav1.5 (Homo sapiens, UniProt Q14524); details: Nav1.5 training/test/validation set; 92 actives and 860 inactive compounds; 1 = active
[2] = for Free drug: experimental data file, Kramer et al. 2013
[3] = Brown dataset; flag given as 1 or 0
Nav1.5 [4] = biological target: T1, Nav1.5
Nav1.5 [5] = biological target: Nav1.5 (Homo sapiens, UniProt Q14524, S234P/V215L)
Cav1.2 = Cav1.2 (Homo sapiens, UniProt Q13936); details: for CAV1p2-maxinhib: maximal inhibition
hERG = hERG (Homo sapiens, UniProt Q12809); details: for HERG-maxinhib: maximal inhibition
[6] = experimental data, Kramer et al. 2013
[7] = maximal inhibition, Kramer et al. 2013
[8] = read-out: NAV1p5-IC50, experimental data, Kramer et al. 2013
[9] = read-out: NAV1.5 IC50, Brown dataset
[10] = Table 11, calculated from HERG-IC50 of the Kramer et al. 2013 data
[11] = read-out: HERG IC50, Brown dataset
[12] = read-out: HERG-IC50, experimental data, Kramer et al. 2013
[13] = read-out: CAV1p2-IC50, experimental data, Kramer et al. 2013
[14] = read-out: CAV1.2 IC50, Brown dataset
[15] = Brown dataset, negative log of free drug concentration

Chain of Cav1.2 (Q13936 1-2138 isoform Q13936-12): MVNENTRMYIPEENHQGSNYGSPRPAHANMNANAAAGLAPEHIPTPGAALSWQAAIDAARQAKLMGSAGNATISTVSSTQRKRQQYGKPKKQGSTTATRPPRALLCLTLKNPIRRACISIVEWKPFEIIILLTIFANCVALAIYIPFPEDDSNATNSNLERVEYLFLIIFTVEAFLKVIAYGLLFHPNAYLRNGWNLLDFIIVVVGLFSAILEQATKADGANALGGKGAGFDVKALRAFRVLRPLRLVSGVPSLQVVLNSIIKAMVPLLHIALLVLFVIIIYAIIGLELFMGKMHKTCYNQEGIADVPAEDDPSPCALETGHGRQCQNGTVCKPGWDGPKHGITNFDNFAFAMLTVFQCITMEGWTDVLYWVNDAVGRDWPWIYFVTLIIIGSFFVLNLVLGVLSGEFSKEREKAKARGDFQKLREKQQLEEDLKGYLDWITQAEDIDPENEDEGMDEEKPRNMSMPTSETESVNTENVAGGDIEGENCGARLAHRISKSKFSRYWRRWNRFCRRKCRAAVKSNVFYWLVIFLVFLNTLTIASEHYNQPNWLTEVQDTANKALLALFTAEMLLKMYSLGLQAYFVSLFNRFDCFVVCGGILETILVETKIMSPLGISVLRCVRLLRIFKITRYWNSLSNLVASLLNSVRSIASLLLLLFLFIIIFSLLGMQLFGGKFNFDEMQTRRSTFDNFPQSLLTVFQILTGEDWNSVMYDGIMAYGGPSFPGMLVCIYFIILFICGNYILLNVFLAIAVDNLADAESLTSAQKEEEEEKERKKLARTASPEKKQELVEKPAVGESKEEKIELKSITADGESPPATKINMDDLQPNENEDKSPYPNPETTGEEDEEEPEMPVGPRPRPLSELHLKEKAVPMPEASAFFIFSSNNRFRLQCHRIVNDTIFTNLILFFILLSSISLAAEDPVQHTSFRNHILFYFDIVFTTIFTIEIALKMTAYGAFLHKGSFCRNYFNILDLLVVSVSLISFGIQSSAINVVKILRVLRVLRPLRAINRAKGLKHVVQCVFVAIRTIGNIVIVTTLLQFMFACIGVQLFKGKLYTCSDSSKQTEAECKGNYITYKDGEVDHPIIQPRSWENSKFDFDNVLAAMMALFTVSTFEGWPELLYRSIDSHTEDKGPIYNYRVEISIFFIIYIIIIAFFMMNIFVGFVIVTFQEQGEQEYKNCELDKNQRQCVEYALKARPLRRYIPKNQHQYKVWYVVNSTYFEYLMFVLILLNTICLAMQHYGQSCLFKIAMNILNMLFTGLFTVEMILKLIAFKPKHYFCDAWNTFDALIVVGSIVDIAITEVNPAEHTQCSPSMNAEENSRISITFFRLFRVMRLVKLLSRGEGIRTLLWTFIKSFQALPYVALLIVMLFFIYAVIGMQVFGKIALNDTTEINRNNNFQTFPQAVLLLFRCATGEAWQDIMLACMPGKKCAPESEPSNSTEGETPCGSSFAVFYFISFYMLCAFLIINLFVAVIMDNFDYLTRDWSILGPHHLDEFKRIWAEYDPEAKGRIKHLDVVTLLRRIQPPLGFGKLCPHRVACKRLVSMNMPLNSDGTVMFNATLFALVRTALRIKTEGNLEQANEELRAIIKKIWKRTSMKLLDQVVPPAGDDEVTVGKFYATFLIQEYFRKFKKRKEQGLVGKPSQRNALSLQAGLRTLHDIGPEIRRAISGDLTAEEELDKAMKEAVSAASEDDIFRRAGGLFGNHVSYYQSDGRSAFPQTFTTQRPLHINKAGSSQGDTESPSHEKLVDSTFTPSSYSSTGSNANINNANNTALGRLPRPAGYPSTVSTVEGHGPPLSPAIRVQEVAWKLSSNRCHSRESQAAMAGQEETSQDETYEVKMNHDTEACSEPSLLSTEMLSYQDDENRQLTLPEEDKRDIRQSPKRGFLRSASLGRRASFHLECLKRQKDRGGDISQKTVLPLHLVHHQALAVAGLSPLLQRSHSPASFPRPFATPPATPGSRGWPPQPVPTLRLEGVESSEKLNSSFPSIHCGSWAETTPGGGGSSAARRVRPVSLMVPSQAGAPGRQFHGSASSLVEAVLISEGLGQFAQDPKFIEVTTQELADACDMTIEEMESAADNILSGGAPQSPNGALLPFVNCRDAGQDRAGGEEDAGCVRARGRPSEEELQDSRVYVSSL
Chain of Cav1.2 (Q08289 whole entry partner): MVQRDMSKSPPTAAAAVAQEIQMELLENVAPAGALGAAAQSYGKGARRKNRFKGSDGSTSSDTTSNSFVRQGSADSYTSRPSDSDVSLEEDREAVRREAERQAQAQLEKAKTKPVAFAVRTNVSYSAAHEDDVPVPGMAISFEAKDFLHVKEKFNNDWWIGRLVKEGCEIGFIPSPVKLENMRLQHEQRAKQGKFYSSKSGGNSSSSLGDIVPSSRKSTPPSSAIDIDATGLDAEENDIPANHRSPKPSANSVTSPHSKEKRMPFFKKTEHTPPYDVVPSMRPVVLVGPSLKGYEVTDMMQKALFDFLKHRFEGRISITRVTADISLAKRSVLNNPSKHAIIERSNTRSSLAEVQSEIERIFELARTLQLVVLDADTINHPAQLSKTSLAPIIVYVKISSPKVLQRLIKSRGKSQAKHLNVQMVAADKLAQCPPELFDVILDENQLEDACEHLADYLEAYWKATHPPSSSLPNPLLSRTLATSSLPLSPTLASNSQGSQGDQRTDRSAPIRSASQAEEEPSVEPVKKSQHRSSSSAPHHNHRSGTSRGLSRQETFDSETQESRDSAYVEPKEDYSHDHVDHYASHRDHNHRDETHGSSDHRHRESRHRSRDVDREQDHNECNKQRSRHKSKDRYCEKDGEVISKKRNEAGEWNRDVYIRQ
Chain of Cav1.2 (P54289 25-946 partner limits assumed): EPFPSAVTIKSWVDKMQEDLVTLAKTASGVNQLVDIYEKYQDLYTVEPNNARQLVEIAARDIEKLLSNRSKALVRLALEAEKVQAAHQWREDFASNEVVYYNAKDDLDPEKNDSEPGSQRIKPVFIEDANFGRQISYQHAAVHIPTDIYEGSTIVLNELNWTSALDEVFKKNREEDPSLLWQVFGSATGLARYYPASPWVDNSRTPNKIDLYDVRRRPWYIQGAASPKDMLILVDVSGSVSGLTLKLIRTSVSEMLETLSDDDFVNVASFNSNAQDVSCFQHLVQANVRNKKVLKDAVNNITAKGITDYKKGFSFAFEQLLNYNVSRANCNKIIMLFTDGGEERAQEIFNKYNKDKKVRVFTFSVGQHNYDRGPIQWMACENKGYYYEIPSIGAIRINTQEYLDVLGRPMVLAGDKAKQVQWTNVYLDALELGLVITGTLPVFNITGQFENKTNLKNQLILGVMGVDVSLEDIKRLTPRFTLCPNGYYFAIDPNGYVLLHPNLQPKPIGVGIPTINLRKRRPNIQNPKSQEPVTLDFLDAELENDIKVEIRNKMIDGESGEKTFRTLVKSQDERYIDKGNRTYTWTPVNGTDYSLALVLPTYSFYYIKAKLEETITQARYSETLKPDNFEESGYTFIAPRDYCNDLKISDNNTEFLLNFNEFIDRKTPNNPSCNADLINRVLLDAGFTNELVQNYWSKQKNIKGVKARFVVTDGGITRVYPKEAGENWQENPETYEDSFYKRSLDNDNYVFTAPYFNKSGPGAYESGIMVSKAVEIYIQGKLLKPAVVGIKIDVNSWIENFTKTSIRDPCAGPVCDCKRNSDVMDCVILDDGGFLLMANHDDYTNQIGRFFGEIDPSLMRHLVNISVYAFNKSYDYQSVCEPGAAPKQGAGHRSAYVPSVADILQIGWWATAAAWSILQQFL
Chain of Cav1.2 (P54289 947-1103 partner limits assumed): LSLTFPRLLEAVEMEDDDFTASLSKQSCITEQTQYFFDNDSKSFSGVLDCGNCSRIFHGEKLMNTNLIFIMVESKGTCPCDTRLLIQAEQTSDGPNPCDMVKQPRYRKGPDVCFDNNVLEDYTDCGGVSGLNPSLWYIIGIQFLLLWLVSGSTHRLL
Chain of hERG (Q12809 whole entry): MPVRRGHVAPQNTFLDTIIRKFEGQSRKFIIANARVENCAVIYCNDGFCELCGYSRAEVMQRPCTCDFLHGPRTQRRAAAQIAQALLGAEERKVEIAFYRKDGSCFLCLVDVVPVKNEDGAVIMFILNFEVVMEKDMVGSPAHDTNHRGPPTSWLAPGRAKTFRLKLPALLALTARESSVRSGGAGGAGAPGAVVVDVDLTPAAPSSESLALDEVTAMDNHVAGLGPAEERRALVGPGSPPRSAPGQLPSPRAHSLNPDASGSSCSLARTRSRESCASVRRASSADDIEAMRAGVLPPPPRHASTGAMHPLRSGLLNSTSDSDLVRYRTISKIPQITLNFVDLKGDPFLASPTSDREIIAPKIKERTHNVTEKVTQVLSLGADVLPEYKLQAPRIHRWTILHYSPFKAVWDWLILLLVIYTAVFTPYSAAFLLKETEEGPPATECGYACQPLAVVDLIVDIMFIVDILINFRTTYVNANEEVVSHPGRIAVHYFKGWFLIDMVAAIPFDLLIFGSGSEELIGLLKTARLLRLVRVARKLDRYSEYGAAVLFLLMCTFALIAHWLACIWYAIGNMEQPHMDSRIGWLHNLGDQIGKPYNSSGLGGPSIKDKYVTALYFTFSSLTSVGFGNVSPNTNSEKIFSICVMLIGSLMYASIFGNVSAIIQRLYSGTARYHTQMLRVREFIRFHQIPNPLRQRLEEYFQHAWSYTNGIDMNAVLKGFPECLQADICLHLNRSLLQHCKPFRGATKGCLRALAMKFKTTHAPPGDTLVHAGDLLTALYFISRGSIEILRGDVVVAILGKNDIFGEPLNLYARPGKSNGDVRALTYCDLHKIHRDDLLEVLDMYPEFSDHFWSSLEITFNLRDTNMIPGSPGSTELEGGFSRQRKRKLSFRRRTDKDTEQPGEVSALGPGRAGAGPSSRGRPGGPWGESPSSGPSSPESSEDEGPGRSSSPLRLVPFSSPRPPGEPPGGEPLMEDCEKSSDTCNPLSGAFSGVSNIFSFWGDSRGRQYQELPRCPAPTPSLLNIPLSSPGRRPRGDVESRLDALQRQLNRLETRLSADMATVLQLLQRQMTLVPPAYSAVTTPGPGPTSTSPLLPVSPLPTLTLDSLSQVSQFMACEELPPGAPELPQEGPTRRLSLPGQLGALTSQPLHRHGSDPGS

In the case of `CCCCCC=C(c1cc(Cl)c(OC)c(C(=O)O)c1)c1cc(Cl)c(OC)c(C(=O)O)c1` [CHEMBL111622], the activity (Nav1.5 [1]) is listed as 1.
For `CC(C)[C@H](NC(=O)CN)C(=O)N[C@@H](CCC(N)=O)C(=O)O` [CHEMBL123454] (H-Gly-Val-Gln-OH), the activity (Nav1.5 [1]) is given as 1.
In the case of `CCCCCC=C(c1cc(C)c(OC)c(C(=O)OC)c1)c1cc(C)c(OC)c(C(=O)OC)c1` [CHEMBL335768], the activity (Nav1.5 [1]) is given as 1.
In the case of `O=C(O)CCCCCC/C=C/CO` [CHEMBL458520], the activity (Nav1.5 [1]) is listed as 1.
For `NC(=S)Nc1cccc(OCCCCCN2CCN(c3ccccc3-c3ccccc3)C2=S)c1` [CHEMBL569085], the activity (Nav1.5 [1]) is given as “Found 92 actives and 860 inactive compounds. 952 CHEMBL569085 1”.
In the case of `CCCCc1oc2ccccc2c1C(=O)c1cc(I)c(OCCN(CC)CC)c(I)c1` [amiodarone], the “Free drug” value [2] is given as 0.0008 µM and the pFD ([2]; negative log of free drug) is given as 9.097.
For `COc1ccc(CCN2CCC(Nc3nc4ccccc4n3Cc3ccc(F)cc3)CC2)cc1` [astemizole], the “Ris (TdP risk flag)” value [3] is given as 1, the “Free drug” value [2] is given as 0.0003 µM and the pFD ([2]; negative log of free drug) is given as 9.523.
For `CC(C)COCC(CN(Cc1ccccc1)c1ccccc1)N1CCCC1` (stereo not drawn) [bepridil], the “Ris (TdP risk flag)” value [3] is given as 1, the IC50 (Nav1.5 [4]) is given as 2.3 µM and the NAV1p5-maxinhib (Nav1.5 [4]) is given as 100. The NAV1p5-pIC50 (Nav1.5 [4]) was 5.638, the NAV1.5 max inhib (Nav1.5 [4]) was 100 and the “NAV1.5 pIC50” value (Nav1.5 [5]) was 5.6382 164. The “Free drug” value [2] was 0.035 µM, the pFD ([2]; negative log of free drug) was 7.456 and the CAV1.2 max inhib (Cav1.2; Brown dataset) was 95.7. For the same molecule, the CAV1p2-maxinhib (Cav1.2; Kramer et al. 2013) was 95.7.
In the case of `CO/N=C(\C(=O)N[C@@H]1C(=O)N2C(C(=O)O)=C(CSc3nc(=O)c(=O)[nH]n3C)CS[C@H]12)c1csc(N)n1` [ceftriaxone], the “Ris (TdP risk flag)” value [3] is listed as 0, the NAV1.5 max inhib (Nav1.5 [4]; Brown dataset) is listed as 14.3 and the NAV1p5-pIC50 (Nav1.5 [4]; [6]) is listed as 3.255. The NAV1p5-maxinhib (Nav1.5 [4]; [7]) was 14.3, the IC50 (Nav1.5 [4]; [8]) was 556 µM and the IC50 (Nav1.5 [4]; [9]) was 555 µM. For the same molecule, the “Free drug” value [2] was 23.17 µM, the pFD ([2]; negative log of free drug) was 4.635 and the “HERG maxInhib” value (hERG; Brown dataset) was 7.5. The pIC50 (hERG; [10]) was 3.351, the HERG-pIC50 (hERG; [6]) was 3.351 and the HERG-maxinhib (hERG; Kramer et al. 2013) was 7.5. For the same molecule, the IC50 (hERG; [11]) was 445 µM, the IC50 (hERG; [12]) was 446 µM and the CAV1.2 max inhib (Cav1.2; Brown dataset) was 38.8. For the same molecule, the CAV1p2-pIC50 (Cav1.2; [6]) was 3.813, the CAV1p2-maxinhib (Cav1.2; Kramer et al. 2013) was 38.8 and the IC50 (Cav1.2; [13]) was 154 µM. For the same molecule, the IC50 (Cav1.2; [14]) was 154 µM.
For `Cc1nc(Nc2ncc(C(=O)Nc3c(C)cccc3Cl)s2)cc(N2CCN(CCO)CC2)n1` [dasatinib], the “Ris (TdP risk flag)” value [3] is listed as 0, the NAV1.5 max inhib (Nav1.5 [4]; Brown dataset) is listed as 58.9 and the pFD [2, 15] is listed as 1.387 ^-1614. The “HERG maxInhib” value (hERG; Brown dataset) was 86.6 and the CAV1.2 max inhib (Cav1.2; Brown dataset) was 52.2.
In the case of `CCCCCCCN(CC)CCCC(O)c1ccc(NS(C)(=O)=O)cc1` (stereo not drawn) [ibutilide], the “Ris (TdP risk flag)” value [3] is given as 1, the NAV1.5 max inhib (Nav1.5 [4]; Brown dataset) is given as 87.9 and the IC50 (Nav1.5 [4]; [9]) is given as 42.5 µM. For the same molecule, the “NAV1.5 pIC50” value (Nav1.5 [5]; Brown dataset) was 4.3716, the Free drug concentration ([2]; Brown dataset) was 140 nM and the pFD [2, 15] was 6.853. The CAV1.2 max inhib (Cav1.2; Brown dataset) was 85.2, the “CAV1.2 pIC50” value (Cav1.2; Brown dataset) was 4.2041 and the IC50 (Cav1.2; [14]) was 62.5 µM.
For `Fc1ccc([C@@H]2CCNC[C@H]2COc2ccc3c(c2)OCO3)cc1` [paroxetine], the “Ris (TdP risk flag)” value [3] is listed as 1, the IC50 (Nav1.5 [4]) is listed as 9.8 µM and the NAV1.5 max inhib (Nav1.5 [4]) is listed as 93.7. The “NAV1.5 pIC50” value (Nav1.5 [5]) was 5.009 924, the “HERG maxInhib” value (hERG; Brown dataset) was 99.5 and the CAV1.2 max inhib (Cav1.2) was 98.5. For the same molecule, the “CAV1.2 pIC50” value (Cav1.2) was 5.409 393 and the IC50 (Cav1.2) was 3.9 µM.
In the case of `O=C1NC(=O)C(c2ccccc2)(c2ccccc2)N1` [phenytoin], the “Ris (TdP risk flag)” value [3] is listed as 0, the NAV1.5 max inhib (Nav1.5 [4]; Brown dataset) is listed as 59.3 and the IC50 (Nav1.5 [4]; [9]) is listed as 72.4 µM. The Free drug concentration ([2]; Brown dataset) was 4360 nM, the “HERG maxInhib” value (hERG) was 16.4 and the CAV1.2 max inhib (Cav1.2; Brown dataset) was 91.7. For the same molecule, the IC50 (Cav1.2; [14]) was 21.9 µM.
For `NC(=O)c1ncn([C@@H]2O[C@H](CO)[C@@H](O)[C@H]2O)n1` [ribavirin], the “Ris (TdP risk flag)” value [3] is listed as 0, the NAV1.5 max inhib (Nav1.5 [4]; Brown dataset) is listed as 6.9 and the IC50 (Nav1.5 [4]; [9]) is listed as 3000 µM. The “HERG maxInhib” value (hERG; Brown dataset) was 21.4, the pIC50 (hERG; [10]) was 3.015 and the IC50 (hERG; [11]) was 967 µM. The CAV1.2 max inhib (Cav1.2; Brown dataset) was 31.9 and the IC50 (Cav1.2; [14]) was 622 µM.
For `Cc1nc2n(c(=O)c1CCN1CCC(c3noc4cc(F)ccc34)CC1)CCCC2` [risperidone], the “Ris (TdP risk flag)” value [3] is given as 1, the Free drug concentration ([2]; Brown dataset) is given as 0 nM and the “HERG maxInhib” value (hERG; Brown dataset) is given as 79.7.
In the case of `N[C@@H](CC(=O)N1CCn2c(nnc2C(F)(F)F)C1)Cc1cc(F)c(F)cc1F` [sitagliptin], the “Ris (TdP risk flag)” value [3] is listed as 0, the NAV1.5 max inhib (Nav1.5 [4]; Brown dataset) is listed as 18.3 and the IC50 (Nav1.5 [4]; [9]) is listed as 1220 µM. For the same molecule, the “HERG maxInhib” value (hERG; Brown dataset) was 35.6, the CAV1.2 max inhib (Cav1.2; Brown dataset) was 35.8 and the IC50 (Cav1.2; [14]) was 147 µM.
For `C[C@@H]1CN(c2c(F)c(N)c3c(=O)c(C(=O)O)cn(C4CC4)c3c2F)C[C@H](C)N1` [sparfloxacin], the “Ris (TdP risk flag)” value [3] is listed as 1, the NAV1.5 max inhib (Nav1.5 [4]; Brown dataset) is listed as 0.8 and the IC50 (Nav1.5 [4]; [9]) is listed as 2560 µM. For the same molecule, the “HERG maxInhib” value (hERG) was 81.5, the “HERG pIC50” value (hERG) was 4.656 726 and the IC50 (hERG) was 22.1 µM. For the same molecule, the pIC50 (hERG) was 4.656, the CAV1.2 max inhib (Cav1.2; Brown dataset) was 50.3 and the IC50 (Cav1.2; [14]) was 88.8 µM.
In the case of chlorpromazine, the NAV1p5-pIC50 (Nav1.5 [4]; [6]) is given as 5.523, the NAV1p5-maxinhib (Nav1.5 [4]; [7]) is given as 97.1 and the IC50 (Nav1.5 [4]; [8]) is given as 3 µM. The “Free drug” value [2] was 0.038 µM, the pFD ([2]; negative log of free drug) was 7.42 and the pIC50 (hERG; [10]) was 5.824. The HERG-pIC50 (hERG; [6]) was 5.824, the HERG-maxinhib (hERG; Kramer et al. 2013) was 96.7 and the IC50 (hERG; [12]) was 1.5 µM. The CAV1p2-pIC50 (Cav1.2; [6]) was 5.469, the CAV1p2-maxinhib (Cav1.2; Kramer et al. 2013) was 99.2 and the IC50 (Cav1.2; [13]) was 3.4 µM.
In the case of cilostazol, the “Ris (TdP risk flag)” value [3] is given as 1, the NAV1.5 max inhib (Nav1.5 [4]; Brown dataset) is given as 22.9 and the IC50 (Nav1.5 [4]; [9]) is given as 93.7 µM. For the same molecule, the “HERG maxInhib” value (hERG; Brown dataset) was 65.9, the pIC50 (hERG; [10]) was 4.86 and the IC50 (hERG; [11]) was 13.8 µM. The CAV1.2 max inhib (Cav1.2; Brown dataset) was 24.6 and the IC50 (Cav1.2; [14]) was 91.2 µM.
